In article PMC6585632 (Clinical Pharmacology in Drug Development, 2018):
Several values for one entry are separate records, joined by “and”; a condition that tells them apart may be missing. Equal entries are not always repeated. Entries after “also recorded” stand apart in the source; their conditions may differ. Where two headings read alike, the source gives them in different places. Marks after values point to notes of the source that are not given here.

Tests used:
[1] = assay type: in vivo, human; settings: for Steady state reached by: plasma trough concentrations; for Arithmetic Mean CLss/F (CV%): day 15 steady state
[2] = Effect of a high-fat meal on single-dose pharmacokinetics; assay type: in vivo, human; settings: for AUC / Cmax / half-life / Tmax: human, plasma, oral; for AUC: AUC0‐24h
[3] = Steady-state pharmacokinetics in food effect cohorts; assay type: in vivo, human; settings: for Tmax / Cmax / AUC / half-life: human, plasma, oral; for Cmax / AUC / half-life: cycle 1 day 15 steady state; for AUC: AUC0‐t
[4] = Dose proportionality at steady state; assay type: in vivo, human; settings: 40–500 mg QD and 240–840 mg BID
[5] = Safety: treatment-emergent adverse events; assay type: in vivo, human
human hepatocytes = settings: incubation with human hepatocytes; ref Clovis Oncology, Inc., data on file; cited from earlier work
[6] = incubation with human liver microsomes; ref Clovis Oncology, Inc., data on file; cited from earlier work
[7] = tested on: Recombinant human cytochrome P450 (CYP) 2D6; settings: recombinant human CYP2D6; ref Clovis Oncology, Inc., data on file; cited from earlier work
[8] = normal metabolizers vs hyperinducers; cited from earlier work
[9] = Part 3, single dose 600 mg, fasted
[10] = Part 3, single dose 600 mg, fed
[11] = Part 3, single dose 600 mg, high‐fat meal
[12] = 40 mg, arithmetic mean, Part 1, single dose 40 mg, cycle 1 day –7 fasted, n 3
[13] = 40 mg, median, Part 1, single dose 40 mg, cycle 1 day –7 fasted, n 3
[14] = 40 mg, median, Part 1, single dose 40 mg, cycle 1 day 1 fed (high-fat meal), n 3
[15] = Part 3, 600 mg BID (n = 26), Grade 5

SMILES: CNCc1ccc(-c2[nH]c3cc(F)cc4c3c2CCNC4=O)cc1 [rucaparib]
- steady‐state accumulation ratio (Rac_AUC0‐12h), range over cohorts ([1]; BID dosing 240‐840 mg): 1.47 to 5.44
- Estimated mean CLss/F, range over cohorts ([1]; BID dosing schedule): 26.2 to 58.6 L/h
- Steady state reached by ([1]; BID dosing schedule): ≤ 8 cycle 1 day
- Arithmetic Mean CLss/F (CV%) ([1]; Part 1, 40 mg QD oral): 26.7 (59) L/h
- Arithmetic Mean CLss/F (CV%) ([1]; Part 1, 80 mg QD oral): 47.5 (23) L/h
- Arithmetic Mean CLss/F (CV%) ([1]; Part 1, 160 mg QD oral, n = 3): 41.6 (29) ^b L/h
- Arithmetic Mean CLss/F (CV%) ([1]; Part 1, 240 mg BID oral, n = 2): 27.3 ^a L/h
- Arithmetic Mean CLss/F (CV%) ([1]; Part 1, 300 mg QD oral): 46.7 (63) L/h
- Arithmetic Mean CLss/F (CV%) ([1]; Part 1, 360 mg BID oral, n = 2): 40.4 ^a L/h
- Arithmetic Mean CLss/F (CV%) ([1]; Part 1, 480 mg BID oral, n = 6): 26.2 (63) ^d L/h
- Arithmetic Mean CLss/F (CV%) ([1]; Part 1, 500 mg QD oral): 27.8 (35) L/h
- Arithmetic Mean CLss/F (CV%) ([1]; Part 1, 600 mg BID oral, n = 4): 58.6 (123) ^g L/h
- Arithmetic Mean CLss/F (CV%) ([1]; Part 1, 840 mg BID oral, n = 1): 29 ^c L/h
- Rac_Cmax at steady state, range over cohorts ([1]; Part 1 BID cohorts): 2.6 to 4.9
- Rac_Cmax at steady state, range over cohorts ([1]; Part 1 QD cohorts): 1.06 to 1.8
- steady‐state accumulation ratio (Rac_AUC0‐24h), range over cohorts ([1]; QD dosing 40‐500 mg): 1.60 to 2.33 and 1.6 to 2.33
- Estimated mean CLss/F, range over cohorts ([1]; QD dosing schedule): 26.7 to 47.5 L/h
- Steady state reached by ([1]; QD dosing schedule): ≤ 8 cycle 1 day
- CLss as share of the normal liver blood flow rate (1450 mL/min) ([1]; at tested oral dose levels): ≤ 24%
- CLss, estimated from CLss/F and oral bioavailability of 36% ([1]; at tested oral dose levels): ≤ 350 mL/min
- Cmax ([1]; human, plasma, oral, 500 mg, mean Cmax, range over cohorts, Part 1 QD cohorts 40‐500 mg, cycle 1 day 1 single dose): 114 to 949 ng/mL
- Tmax ([1]; human, plasma, oral, Median tmax, range over cohorts, Part 1 QD cohorts): 1.5 to 4 h
- Tmax ([1]; human, plasma, oral, cohort median tmax, range, across all doses and tablet strengths tested (Parts 1 and 3)): 1.5 to 6 h
- Tmax ([1]; human, plasma, po, 360 mg, Median tmax (range), Part 1, 360 mg BID oral, day 1): 3.23 h
- effect of food (high‐fat meal) on rucaparib pharmacokinetics ([2]; Part 1, single dose of 40 mg (n = 3) or 300 mg (n = 6)): No effect of food; also recorded: Minimal food effect
- median tmax delay by a high‐fat meal ([2]; Part 3, single dose 600 mg): 2.5 h
- intersubject variability (CV%) of the geometric mean AUC0‐24h [2, 9]: 84.6%
- intersubject variability (CV%) of the geometric mean Cmax [2, 9]: 87.5%
- intersubject variability (CV%) of the geometric mean AUC0‐24h [2, 10]: 86.8%
- intersubject variability (CV%) of the geometric mean Cmax [2, 10]: 82.8%
- fed‐to‐fasted geometric mean ratio (90%CI) for AUC0‐24h [2, 11]: 138%
- fed‐to‐fasted geometric mean ratio (90%CI) for Cmax [2, 11]: 120%
- AUC ([2]; 40 mg, arithmetic mean, Part 1, single dose 40 mg, cycle 1 day 1 fed (high-fat meal), n 2): 794 ng·h/mL
- AUC [2, 12]: 741 ng·h/mL
- AUC ([2]; 40 mg, median, Part 1, single dose 40 mg, cycle 1 day 1 fed (high-fat meal), n 2): 794 ng·h/mL
- AUC [2, 13]: 468 ng·h/mL
- Cmax ([2]; 40 mg, arithmetic mean, Part 1, single dose 40 mg, cycle 1 day 1 fed (high-fat meal), n 3): 64.8 ng/mL
- Cmax [2, 12]: 77.9 ng/mL
- Cmax [2, 14]: 71.1 ng/mL
- Cmax [2, 13]: 57.6 ng/mL
- half-life ([2]; 40 mg, t1/2, arithmetic mean, Part 1, single dose 40 mg, cycle 1 day 1 fed (high-fat meal), n 3): 12.6 h
- half-life ([2]; 40 mg, t1/2, arithmetic mean, Part 1, single dose 40 mg, cycle 1 day –7 fasted, n 3): 10.6 h
- half-life ([2]; 40 mg, t1/2, median, Part 1, single dose 40 mg, cycle 1 day 1 fed (high-fat meal), n 3): 12.7 h
- half-life ([2]; 40 mg, t1/2, median, Part 1, single dose 40 mg, cycle 1 day –7 fasted, n 3): 8.16 h
- Tmax [2, 14]: 2.55 h
- Tmax [2, 13]: 4 h
- AUC ([2]; 300 mg, arithmetic mean, Part 1, single dose 300 mg, cycle 1 day 1 fed (high-fat meal), n 5): 6890 ng·h/mL
- Mean (CV%) steady‐state CLss/F ([3]; continuous 600 mg BID, Part 3, CV 45%): 44.2 L/h
- Tmax ([3]; 40 mg): 4 h
- Cmax ([3]; 40 mg, arithmetic mean, Part 1 food effect cohort, 40 mg QD, n 3): 129 ng/mL
- Cmax ([3]; 40 mg, median, Part 1 food effect cohort, 40 mg QD, n 3): 103 ng/mL
- Tmax ([3]; 300 mg): 2.47 h
- AUC ([3]; 300 mg, arithmetic mean, Part 1 food effect cohort, 300 mg QD, t = 24 hours, n 3): 13300 ng·h/mL
- AUC ([3]; 300 mg, median, Part 1 food effect cohort, 300 mg QD, t = 24 hours, n 3): 5220 ng·h/mL
- Cmax ([3]; 300 mg, arithmetic mean, Part 1 food effect cohort, 300 mg QD, n 5): 727 ng/mL
- Cmax ([3]; 300 mg, median, Part 1 food effect cohort, 300 mg QD, n 5): 444 ng/mL
- half-life ([3]; 300 mg, t1/2, arithmetic mean, Part 1 food effect cohort, 300 mg QD, n 3): 20 h
- half-life ([3]; 300 mg, t1/2, median, Part 1 food effect cohort, 300 mg QD, n 3): 27.5 h
- Tmax ([3]; 600 mg): 1.92 h
- AUC ([3]; 600 mg, arithmetic mean, Part 3, 600 mg BID, t = 10 hours, n 18): 15800 ng·h/mL
- AUC ([3]; 600 mg, median, Part 3, 600 mg BID, t = 10 hours, n 18): 12900 ng·h/mL
- Cmax ([3]; 600 mg, arithmetic mean, Part 3, 600 mg BID, n 18): 1940 ng/mL
- Cmax ([3]; 600 mg, median, Part 3, 600 mg BID, n 18): 1480 ng/mL
- dose proportionality of plasma exposure [4]: approximately dose proportional
- deaths due to disease progression ([5]; Part 1): Three
- treatment‐related deaths ([5]; Part 1): No treatment‐related deaths
- treatment‐related deaths ([5]; Part 3, 600 mg BID): No treatment‐related deaths
- Dyspnea [5, 15]: 1 (3.8%) n (%)
- Pulmonary embolism [5, 15]: 1 (3.8%) n (%)
- metabolic turnover rate (human hepatocytes): slow metabolic turnover rates
- metabolic turnover rate [6]: slow metabolic turnover rates
- metabolism by recombinant enzyme [7]: able to metabolize rucaparib
- effect of CYP1A2 polymorphisms on pharmacokinetics [8]: no apparent effect
